Measured values from US20250263404A1, “AMINOPYRIDINES AS ACTIVATORS OF PI3 KINASE” (UCL Business Ltd, priority 2021, published 2025).

Experiments:
[1] = target: PI3Kα (Homo sapiens, UniProt P42336); experiment: ADP-Glo in vitro lipid kinase assay, PI3Kα; type: biochemical; set-up: Full-length p110α was expressed in a complex with full-length p85α (for biochemistry and HDX-MS); 6xHis followed by TEV protease site (N); made in house; host or cells: Spodoptera frugiperda Sf9 (baculovirus co-infection; plasmids OP831 and OP809)
Sequence of PI3Kα (P42336 whole entry, the tested form may be a part): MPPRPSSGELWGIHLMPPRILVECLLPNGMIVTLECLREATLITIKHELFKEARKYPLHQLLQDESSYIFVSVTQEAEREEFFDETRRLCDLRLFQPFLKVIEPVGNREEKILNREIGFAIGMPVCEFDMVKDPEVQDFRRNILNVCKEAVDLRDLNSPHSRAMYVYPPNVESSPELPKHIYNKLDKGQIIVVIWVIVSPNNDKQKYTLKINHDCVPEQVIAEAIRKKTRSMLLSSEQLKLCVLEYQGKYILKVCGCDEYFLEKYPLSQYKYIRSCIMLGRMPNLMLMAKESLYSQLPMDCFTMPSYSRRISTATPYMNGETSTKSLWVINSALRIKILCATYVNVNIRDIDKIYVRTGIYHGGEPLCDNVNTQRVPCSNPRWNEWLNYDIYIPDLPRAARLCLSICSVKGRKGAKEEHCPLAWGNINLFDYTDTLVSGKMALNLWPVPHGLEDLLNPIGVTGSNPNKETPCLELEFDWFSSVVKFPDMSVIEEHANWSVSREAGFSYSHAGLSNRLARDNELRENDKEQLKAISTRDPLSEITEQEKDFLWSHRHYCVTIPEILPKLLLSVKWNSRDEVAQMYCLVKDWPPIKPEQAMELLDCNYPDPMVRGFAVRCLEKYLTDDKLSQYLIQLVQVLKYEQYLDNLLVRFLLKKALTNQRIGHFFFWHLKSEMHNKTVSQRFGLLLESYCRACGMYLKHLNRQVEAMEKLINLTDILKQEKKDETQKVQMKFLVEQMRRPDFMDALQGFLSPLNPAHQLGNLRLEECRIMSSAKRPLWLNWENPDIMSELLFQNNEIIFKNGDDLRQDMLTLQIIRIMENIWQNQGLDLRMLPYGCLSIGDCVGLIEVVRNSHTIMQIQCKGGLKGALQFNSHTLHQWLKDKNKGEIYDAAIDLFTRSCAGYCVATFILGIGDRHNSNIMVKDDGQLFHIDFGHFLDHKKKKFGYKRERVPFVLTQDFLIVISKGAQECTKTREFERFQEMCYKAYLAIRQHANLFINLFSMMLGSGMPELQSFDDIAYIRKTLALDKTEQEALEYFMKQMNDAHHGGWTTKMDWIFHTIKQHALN
Sequence of PI3Kα (P27986 whole entry partner, the tested form may be a part): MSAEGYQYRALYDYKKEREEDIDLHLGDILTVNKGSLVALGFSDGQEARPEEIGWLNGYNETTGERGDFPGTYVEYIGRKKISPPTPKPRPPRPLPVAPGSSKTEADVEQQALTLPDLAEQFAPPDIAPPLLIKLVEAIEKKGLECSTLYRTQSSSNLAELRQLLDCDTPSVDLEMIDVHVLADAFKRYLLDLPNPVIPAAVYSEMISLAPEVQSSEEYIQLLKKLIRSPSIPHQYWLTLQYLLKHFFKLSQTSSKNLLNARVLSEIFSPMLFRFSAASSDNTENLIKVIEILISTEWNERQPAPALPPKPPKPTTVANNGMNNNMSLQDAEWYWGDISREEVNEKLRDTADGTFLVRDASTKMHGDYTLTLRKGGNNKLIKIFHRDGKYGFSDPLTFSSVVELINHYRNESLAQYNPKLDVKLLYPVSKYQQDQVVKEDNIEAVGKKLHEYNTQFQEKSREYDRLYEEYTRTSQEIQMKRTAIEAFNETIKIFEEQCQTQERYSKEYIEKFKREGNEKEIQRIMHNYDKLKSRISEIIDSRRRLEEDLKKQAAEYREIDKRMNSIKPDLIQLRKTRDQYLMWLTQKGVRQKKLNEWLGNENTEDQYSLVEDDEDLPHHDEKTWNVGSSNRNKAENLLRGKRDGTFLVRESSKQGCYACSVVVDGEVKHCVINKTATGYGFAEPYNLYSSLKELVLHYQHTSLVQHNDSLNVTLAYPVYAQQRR
Method: The effect of 1938 on the in vitro lipid kinase activity of p85α in complex with p110α, p110β or p110δ (further referred to as PI3Kα, PI3Kβ and PI3Kδ) was tested. As a positive control, a bis-phosphorylated phosphopeptide (a PDGF-receptor-derived peptide phosphorylated on Tyr-740 and Tyr-751, hereafter referred to as pY peptide) was used to mimic engagement of the p85α SH2 domains with tyrosine-phosphorylated peptides in membrane-bound receptors and adaptor proteins, known to activate the PI3Kα complex.
Kinase reactions were performed with ADP-Glo kinase assay kit (Promega Corporation). The enzyme, substrate and compounds were diluted in reaction buffer (20 mM HEPES, 50 mM NaCl, 50 mM KCl, 3 mM MgCl2, 1 mM EGTA, 1 mM TCEP, pH 7.4). Final concentrations of PI3Kα and PI3Kδ used were 25 nM and 50 nM for PI3Kβ. Liposomes (5% brain PI(4,5)P2, 20% brain phosphatidylserine, 45% brain phosphatidylethanolamine, 15% brain phosphatidylcholine, 10% cholesterol, 5% sphingomyelin (Avanti Polar Lipids)) were used at a final concentration of 1 mg/ml.
For compound profiling, the reaction mixture contained 2 μl PI3K enzyme, 2 μl compound and/or pY and 2 μl of liposome substrate mixed with ATP. ATP was used at a final concentration of 500 μM for PI3Kα and PI3Kβ and at 200 μM for PI3Kδ, unless otherwise stated. The final DMSO concentration in the assay was 1%. The experiments were performed at room temperature for 3 h using 384 white-polystyrene plates (Corning #3824) before addition of 6 μl of ADP-Glo R1 to terminate the reaction. The plate was incubated for 45 min, followed by addition of 12 μl of ADP-Glo R2 and incubated further for 60 min in the dark. Luminescence was read using a Sense (Hidex) plate reader. […] All analyses were performed using GraphPad Prism 7.
For characterisation of the effects of 1938 on in vitro PI3K enzymology, all reactions were performed at room temperature with 384 white-polystyrene plates (Corning #3574). The final DMSO concentration in the assay was between 0.5%-1.8%. The reaction mixture contained 2 μl PI3K enzyme, 2 μl compound and/or pY and 2 μl of liposome substrate mixed with ATP. ATP was used at a final concentration of 200 μM, unless otherwise stated. The enzyme and compounds were pre-incubated for 10 min prior to addition of substrate. The reaction was allowed to proceed for 45 min at room temperature, before addition of 6 μl of ADP-Glo R1 to terminate the reaction. The plate was incubated for 60 min, followed by addition of 12 μl of ADP-Glo R2 and incubated further for 60 min in the dark. For enzyme kinetic calculations, data was expressed as velocity (pmol of ADP generated/sec). ADP-ATP standard curves were performed according to the manufacturer's instructions, and all analyses were performed using GraphPad Prism 8.

[2] = test system: 133 protein kinases and 7 lipid kinases; experiment: SelectScreen kinase profiling panel; type: biochemical
Method: 133 protein kinases and 7 lipid kinases were counterscreened, with […] used at 1 μM, using the Adapta, Lantha and Z-LYTE assays (SelectScreen Kinase Profiling Service; Thermofisher—experimental details of these assays can be found here: https://www.thermofisher.com/uk/en/home/industrial/pharma-biopharma/drug-discovery-development/target-and-lead-identification-and-validation/kinasebiology/kinase-activity-assays.html. The tree representation in KinMap generated courtesy of Cell Signaling Technology, Inc. (www.cellsignal.com). mTORC1 (mTOR/RAPTOR/LST8) protein complex and ATM kinase and substrates were produced as previously described (Anandapadamanaban, M. et al. Science (New York, NY 366, 203-210 (2019); Baretic, D. et al. Sci Adv 3, e1700933 (2017). Screening of 1938 was conducted using SuperSep Phos-Tag 50 μmol/l 100×100×6.6 mm 17-well (192-18001/199-18011) gels. For ATM assays, 100 nM ATM was incubated for 30 min at 30° C. with 5 μM GST-p53 and 1 mM ATP, in the absence or presence of 200 μM 1938 in ATM Kinase Buffer (50 mM HEPES pH 7.5, 100 mM NaCl, 10% glycerol, 2 mM […], 5 mM MgCl2). […] Gels were then stained using InstantBlue™ Coomassie stain, and then quantified using BioRad Image Lab Software. […]

PI3Kα activation in combination with a saturating concentration of pY ([1]; 1938 plus pY): synergistic PI3Kα activation
maximum rate of reaction (Vmax) of PI3Kα ([1]; ATP titration): increased
turnover number (Kcat) of PI3Kα ([1]; ATP titration): increased
effect on in vitro lipid kinase activity of PI3Kα ([1]; concentration-dependent): activate PI3Kα
EC50 ([1]; in vitro PI3Kα activation): 58 ± 28 µM
Max. activity relative to 1938 ([1]; relative to 1938): 100%
Max. activity relative to pY ctrl ([1]; relative to pY control): 397 ± 60%
number of protein kinases inhibited between 25-50% ([2]; 1 μM of 1938): 13
activity of other PI3K isoforms and PI3K-related kinases in the panel ([2]; PI3Kβ, PI3Kγ, PI3Kδ, PI3K-C2α, Vps34, PI4Kβ, mTOR, DNA-PK, 1 μM): did not affect
SMILES: CCN1CCN(c2ccc(Nc3cc(Nc4cccc5c4N(C(C)=O)CC5)ccn3)cc2)CC1 [Example 1938]
